Source: patent US20210186838A1, “ACTIVE SUBSTANCE COMBINATIONS OF N-(4-AMINO-2-METHYLQUINOLIN-6-YL)-2-((4-ETHYLPHENOXY)METHYL)BENZAMIDE AND ONE OR MORE COSMETICALLY OR DERMATOLOGICALLY ACCEPTABLE PRESERVATIVES AND/OR PRESERVATIVE AUXILIARIES” (BEIERSDORF AG, priority 2017, published 2021)

Columns and labels:
[1] = test system: subcutaneous adipocytes; experiment: lipid assay (AdipoRed staining of total lipid); format: cell-based; conditions: for Assay in which the combination showed better activity than the corresponding active substance alone: Lipid: active substance combined with 10 ng/ml N-(4-amino-2-methylquinolin-6-yl)-2-((4-ethylphenoxy)methyl)benzamide, adipocytes, one week, AdipoRed, assay named in cell = better activity
Method: The lipid assay is performed on subcutaneous adipocytes. Cell culture dishes are inoculated with preadipocytes, which undergo differentiation into adipocytes. This is followed by treatment with the active substance for one week, during which the cells synthesize lipids and store them in vesicles. The total amount of lipid as a function of active substance effects is determined at the end of the culture period. This is done by staining the cell monolayer with the lipophilic fluorescent dye AdipoRed, followed by quantification by fluorescence spectroscopy.

[2] = test system: dermal fibroblasts; experiment: viability assay (BrdU incorporation, cell division rate); format: cell-based; conditions: 24 h; for Assay in which the combination showed better activity than the corresponding active substance alone: BrdU: active substance combined with 10 ng/ml N-(4-amino-2-methylquinolin-6-yl)-2-((4-ethylphenoxy)methyl)benzamide, assay named in cell = better activity
Source text: The cells take up this synthetic nucleic acid, which is detectable by fluorescence detection, and incorporate it into newly synthesized genetic material during cell division. […] This allows conclusions to be drawn about the effect of the individual active substances on cell viability.

[3] = test system: human adipocytes; experiment: LDH (lactate dehydrogenase) cytotoxicity assay; conditions: for Assay in which the combination showed better activity than the corresponding active substance alone: LDH: active substance combined with 10 ng/ml N-(4-amino-2-methylquinolin-6-yl)-2-((4-ethylphenoxy)methyl)benzamide, LDH in medium supernatant, assay named in cell = better activity (less LDH escape)
Method: The third assay performed is the LDH (lactate dehydrogenase) cytotoxicity assay. In this assay, the metabolic enzyme LDH is detected in the medium supernatant of the cell monolayer by adding a substrate for the enzyme to the cell culture supernatant. Reaction of the latter produces a color change, which is determined photometrically. The magnitude of the color change correlates here with the amount of LDH in the cell culture supernatant.
For all assays, the active substances were present as 1000× stocks dissolved to 10 mM in DMSO and were diluted 1:1000 in the appropriate cell culture medium for use.

Compound | Assay in which the combination showed better activity than the corresponding active substance alone: Lipid [1] | Assay in which the combination showed better activity than the corresponding active substance alone: BrdU [2] | other results
Phenoxyethanol [Phenoxyethanol/Phenoxetol] | Lipid | – | –
CCCCCCC(O)CO (stereo not drawn) [octane-1,2-diol] | – | BrdU | Assay in which the combination showed better activity than the corresponding active substance alone: LDH [3]: LDH
OCCCCO [Butylene glycol/Natan, Butylene glycol] | Lipid | BrdU | –
O=C([O-])c1ccccc1O.[Na+] [Sodium salicylate] | Lipid | – | –
CCOC(=O)c1ccc(O)cc1 [Ethylparaben/Konpar A, Ethylparaben] | – | BrdU | Assay in which the combination showed better activity than the corresponding active substance alone: LDH [3]: LDH
CCc1ccc(OCc2ccccc2C(=O)Nc2ccc3nc(C)cc(N)c3c2)cc1 [N-(4-Amino-2-methylquinolin-6-yl)-2-((4-ethylphenoxy)methyl)benzamide] | – | – | rate of incorporation of BrdU ([2]; in combination with a preservative versus the corresponding preservative alone, FIG. 1): increase; accumulation of AdipoRed (differentiation performance of the adipocytes) ([1]; in combination with a preservative versus the corresponding preservative alone, one week treatment, FIG. 2): increase; rate of escape of LDH ([3]; in combination with a preservative versus the corresponding preservative alone, human adipocytes, FIG. 3): decrease
CCCCCCCC(=O)OCC(O)CO (stereo not drawn) [Glyceryl caprylate/emulsifier CY, Glyceryl caprylate] | – | BrdU | –
CCCCC(O)CO (stereo not drawn) [1,2-Hexanediol/Hydiol 6, 1,2-Hexanediol] | Lipid | – | Assay in which the combination showed better activity than the corresponding active substance alone: LDH [3]: LDH
CC1(C)C(=O)N(CO)C(=O)N1CO [Kondant/DMDM hydantoin, DMDM hydantoin] | Lipid | BrdU | –
Cc1cc(CC(C)CC(C)(C)C)n(O)c(=O)c1.NCCO (stereo not drawn) [Piroctone olamine/Octupus, Piroctone olamine] | Lipid | BrdU | –
Cn1sccc1=O [Methylisothiazolinone/Konlon 950, Methylisothiazolinone] | Lipid | BrdU | –
O=C([O-])c1ccccc1.[Na+] [Sodium benzoate] | Lipid | – | Assay in which the combination showed better activity than the corresponding active substance alone: LDH [3]: LDH
CC(CO)CO [Methylpropanediol/Lolo, Methylpropanediol] | Lipid | – | –
OCc1ccccc1 [Benzyl alcohol] | Lipid | – | –
